Reference: patent publication US12077503B2, “Substituted cyclic amides and their use as herbicides” (FMC CORPORATION, priority 2015, dated 2024)
Read-outs that look alike come from different tables or passages of the source.

What was measured:
[1] = test system: blackgrass (Alopecurus myosuroides); assay: Test A postemergence; format: in vivo; settings: Alopecurus myosuroides, post-emergence, 240 h; for pest or weed control at 125 g/ha: 125 g ai/ha; for pest or weed control at 500 g/ha: 500 g ai/ha
Outline: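 Seeded soil received test chemicals as a preemergence directed spray, and seedlings at one to two leaves, 2–10 cm tall, received them postemergence, in a non-phytotoxic, surfactant-containing solvent mixture. Pots were held in a greenhouse for approximately 10 d, then rated for injury from 0, no effect, to 100, complete control.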

[2] = test system: barnyardgrass (Echinochloa crus-galli); assay: Test B flooded paddy test; format: in vivo; settings: 250 g ai/ha, Flood; for pest or weed control at 250 g/ha: Echinochloa crus-galli, read-out: Barnyardgrass plant response rating
Outline: (§1)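 Greenhouse paddy pots with 2-leaf stage plants received compound by direct addition to floodwater 3 cm deep, kept at that level. Scored visually at 13–15 d versus controls (0 no effect; 100 complete control).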

rice (Oryra sativa) = assay: Test B flooded paddy test; format: in vivo; settings: 250 g ai/ha, Flood; for pest or weed control at 250 g/ha: Oryza sativa, read-out: Rice plant response rating
Outline: as §1

[3] = test system: ducksalad (Heteranthera limosa); assay: Test B flooded paddy test; format: in vivo; settings: 250 g ai/ha, Flood; for pest or weed control at 250 g/ha: Heteranthera limosa, read-out: Ducksalad plant response rating
Outline: as §1

[4] = test system: sedge, umbrella (small-flower umbrella sedge, Cyperus difformis); assay: Test B flooded paddy test; format: in vivo; settings: 250 g ai/ha, Flood; for pest or weed control at 250 g/ha: Cyperus difformis, read-out: Sedge, Umbrella plant response rating
Outline: as §1

[5] = test system: ryegrass, Italian (Italian ryegrass, Lolium multiflorum); assay: Test C preemergence; format: in vivo; settings: for Plant response rating, Ryegrass, Italian: scale 0 to 100, 0 no effect, 100 complete control
Outline: (§2)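 Preemergence: sow in loam-sand soil and treat. Postemergence: grow in peat-moss/vermiculite medium to 2–18 cm (1–4 leaves) and spray. Compound in non-phytotoxic solvent with surfactant; keep in greenhouse 13–15 d; score visually against controls, 0 (none) to 100 (full control).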

soybean (Glycine max) = assay: Test C preemergence; format: in vivo; settings: for Plant response rating, Soybean: scale 0 to 100, 0 no effect, 100 complete control
Outline: as §2

[6] = test system: johnsongrass (Sorghum halepense); assay: Test C preemergence; format: in vivo; settings: for Plant response rating, Johnsongrass: scale 0 to 100, 0 no effect, 100 complete control
Outline: as §2

[7] = test system: waterhemp (common waterhemp, Amaranthus rudis); assay: Test C preemergence; format: in vivo; settings: for Plant response rating, Waterhemp: scale 0 to 100, 0 no effect, 100 complete control
Outline: as §2

corn (Zea mays) = assay: Test C preemergence; format: in vivo; settings: for Plant response rating, Corn: scale 0 to 100, 0 no effect, 100 complete control
Outline: as §2

[8] = test system: ragweed (common ragweed, Ambrosia elatior); assay: Test C preemergence; format: in vivo; settings: for Plant response rating, Ragweed: scale 0 to 100, 0 no effect, 100 complete control
Outline: as §2

[9] = test system: blackgrass (Alopecurus myosuroides); assay: Test C preemergence; format: in vivo; settings: for Plant response rating, Blackgrass: scale 0 to 100, 0 no effect, 100 complete control
Outline: as §2

[10] = test system: lambsquarters (Chenopodium album); assay: Test C preemergence; format: in vivo; settings: for Plant response rating, Lambsquarters: scale 0 to 100, 0 no effect, 100 complete control
Outline: as §2

[11] = test system: Galium (catchweed bedstraw, Galium aparine); assay: Test C preemergence; format: in vivo; settings: for Plant response rating, Galium: scale 0 to 100, 0 no effect, 100 complete control
Outline: as §2

[12] = 0 to 100 scale where 0 is no effect and 100 is complete control
[13] = 0 to 100 scale where 0 is no effect and 100 is complete control, 13 to 15 d
[14] = 31 g ai/ha, 0 is no effect, 100 is complete control
[15] = scale of 0 to 100 where 0 is no effect and 100 is complete control

O=C1NC[C@H](c2ccc(F)c(OC(F)(F)C(F)F)c2)[C@H]1C(=O)Nc1ccccc1F [Compound 1133]
pest or weed control at 125 g/ha ([1]; postemergence, visual injury on 0 to 100 scale (0 no effect, 100 complete control), approx. 10 d, read-out: Blackgrass plant response rating): 30% | pest or weed control at 500 g/ha ([1]; postemergence, 0 to 100 scale, 0 is no effect, 100 is complete control, read-out: Blackgrass plant response rating): 70% | pest or weed control at 250 g/ha [2, 12]: 50% | pest or weed control at 250 g/ha (rice (Oryra sativa); [12]): 0% | pest or weed control at 250 g/ha [3, 12]: 85% | pest or weed control at 250 g/ha [4, 12]: 0% | melting point: 119 to 123 °C

CN1C[C@H](c2ccc(C(F)(F)F)cc2)[C@@H](C(=O)Nc2ccccc2F)C1=O [Compound 622, (3S,4S)—N-(2-fluorophenyl)-1-methyl-2-oxo-4-[4-(trifluoromethyl)phenyl]-3-pyrrolidinecarboxamide]
pest or weed control at 125 g/ha ([1]; postemergence, visual rating after approx. 10 d, 0 to 100 scale (0 no effect, 100 complete control), read-out: Plant response rating, Blackgrass): 30% | pest or weed control at 500 g/ha ([1]; Postemergence, 0 to 100 scale where 0 is no effect and 100 is complete control, read-out: Plant response rating, Blackgrass): 60% | Plant response rating, Barnyardgrass [2, 13]: 70 | Plant response rating, Rice (rice (Oryra sativa); [13]): 0 | Plant response rating, Ducksalad [3, 13]: 100 | Plant response rating, Sedge, Umbrella [4, 13]: 0 | Plant response rating (scale of 0 to 100), Ryegrass, Italian [5, 14]: 25 | Plant response rating, Ryegrass, Italian ([5]; 62 g ai/ha): 50 | Plant response rating, Ryegrass, Italian ([5]; 125 g ai/ha): 35 | Plant response rating, Ryegrass, Italian ([5]; 250 g ai/ha): 70 | Plant response rating (scale of 0 to 100), Soybean (soybean (Glycine max); [14]): 0 | Plant response rating, Soybean (soybean (Glycine max); 62 g ai/ha): 20 | Plant response rating, Soybean (soybean (Glycine max); 125 g ai/ha): 85 | Plant response rating, Soybean (soybean (Glycine max); 250 g ai/ha): 45 | Plant response rating (scale of 0 to 100), Johnsongrass [6, 14]: 25 | Plant response rating, Johnsongrass ([6]; 62 g ai/ha): 60 | Plant response rating, Johnsongrass ([6]; 125 g ai/ha): 50 | Plant response rating, Johnsongrass ([6]; 250 g ai/ha): 65 | Plant response rating (scale of 0 to 100), Waterhemp [7, 14]: 75 | Plant response rating, Waterhemp ([7]; 62 g ai/ha): 85 | Plant response rating, Waterhemp ([7]; 125 g ai/ha): 90 | Plant response rating, Waterhemp ([7]; 250 g ai/ha): 90 | Plant response rating (scale of 0 to 100), Corn (corn (Zea mays); [14]): 5 | Plant response rating, Corn (corn (Zea mays); 62 g ai/ha): 45 | Plant response rating, Corn (corn (Zea mays); 125 g ai/ha): 85 | Plant response rating, Corn (corn (Zea mays); 250 g ai/ha): 80 | Plant response rating (scale of 0 to 100), Ragweed [8, 14]: 45 | Plant response rating, Ragweed ([8]; 62 g ai/ha): 70 | Plant response rating, Ragweed ([8]; 125 g ai/ha): 85 | Plant response rating, Ragweed ([8]; 250 g ai/ha): 85 | Plant response rating (scale of 0 to 100), Blackgrass [9, 14]: 0 | Plant response rating, Blackgrass ([9]; 62 g ai/ha): 0 | Plant response rating, Blackgrass ([9]; 125 g ai/ha): 80 | Plant response rating, Blackgrass ([9]; 250 g ai/ha): 85 | Plant response rating (scale of 0 to 100), Lambsquarters [10, 14]: 75 | Plant response rating, Lambsquarters ([10]; 62 g ai/ha): 35 | Plant response rating, Lambsquarters ([10]; 125 g ai/ha): 70 | Plant response rating, Lambsquarters ([10]; 250 g ai/ha): 75 | Plant response rating (scale of 0 to 100), Galium [11, 14]: 80 | Plant response rating, Galium ([11]; 62 g ai/ha): 90 | Plant response rating, Galium ([11]; 125 g ai/ha): 90 | Plant response rating, Galium ([11]; 250 g ai/ha): 90

CN1CC[C@H](c2cccc(C(F)(F)F)c2)[C@@H](C(=O)Nc2ccccc2S(C)(=O)=O)C1=O [Compound 920]
pest or weed control at 125 g/ha ([1]; Postemergence, visual injury after approximately 10 d, 0 to 100 scale where 0 is no effect and 100 is complete control, read-out: Plant response rating, Blackgrass): 0% | pest or weed control at 250 g/ha [2, 15]: 0% | pest or weed control at 250 g/ha (rice (Oryra sativa); [15]): 0% | pest or weed control at 250 g/ha [3, 15]: 0% | pest or weed control at 250 g/ha [4, 15]: 0%
